According to patent publication US20250223306A1, “TEAD INHIBITORS AND METHODS OF USE” (Sporos BioDiscovery, Inc., priority 2022, published 2025):

Columns and labels:
NCI-H226 cells [1] = assay: Proliferation and cell viability, CellTiter-Glo 2.0 (CTG) assay; format: cell-based; settings: H226-responder cell line, 144 hrs
Method: (§1) Cell proliferation of a TEAD dependent NF2-null mesothelioma cell line, NCI-H226, and a TEAD-non-dependent mesothelioma cell line, NCI-H28 was assayed using two different protocols: • a) CellTiter-Glo 2.0 (Promega #G9243). The effect of the TEAD inhibitors disclosed herein on cell proliferation was determined in TEAD1-genetically dependent cell line NCI-H226 (responder cell line) and TEAD-independent cell lines (NCI-H23, HEK293T), as non-responder, negative control. Cells were seeded in 96-well plates (Thermo Scientific #167008) in growth media (RPMI-1640, Gibco #61870-010) for NCI-H226 and NCI-H23 or DMEM (Gibco #31966-021, HEK293T) with 10% Heat Inactivated Fetal Bovine Serum (Gibco 10500-064) at 800 (NCI-H226 and HEK-293T) or 2000 (NCI-H23) cells per well at 37° C., 5% CO2, humidified incubator; 24 hours later, fresh growth media containing test compound or DMSO vehicle was added and incubated with the cells for 144 hrs. TEAD inhibitor stocks were made at a 1000× fold excess in DMSO, and a dose response test compound dose range of 10,000 to 0.1 nM was used. Each treatment was carried out in triplicate. After 144 hrs of treatment, relative cell viability numbers were determined using the CellTiter-Glo 2.0 assay following the manufacturer's instructions. Test plates and CellTiter-Glo 2.0 reagent were allowed to equilibrate to room temperature. CellTiter-Glo 2.0 reagent was added at 1:1 reagent to media ratio to the 96-well cell plates, plates were placed on a plate shaker for 2 minutes and then incubated at room temperature for a further 10 minutes to allow complete cell lysis to occur. The mix was then transferred to white, 96-well luminometer assay plates (Greiner Bio One #655075). Luminescence was quantified using a CLARIOStar Plus multi-mode plate reader (BMG Labtech) in luminescence detection mode with the recommended settings (ultra-Glo pre-set: emission 545-50 nm with autofocus and enhanced dynamic range on). Relative cell density was expressed as a function of inhibitor concentration, with respect to DMSO-only control wells. Data where plotted using GraphPad Prism and IC50 values for the biological effect were calculated using the EC50 non-linear fit function using a sigmoidal, 4-parameter logistic, least squares fit with no constraints. • b) Cell Titer One (Promega, #G3582). The effect of the TEAD inhibitors disclosed herein on cell proliferation was also determined using the Promega Substrate Cell Titer Aqueous One Solution Reagent. The TEAD inhibitors were evaluated for the effects on cell proliferation responder (H226) and non-responder negative control cancer cell lines (CAMA1, H28), as well as non-transformed normal human cells (HUVEC, NHDF). Dissociated cells were resuspend in media (depending on cell line, either in DMEM, RPMI, or EMEM all with 10% FBS, with gentamicin as an antibiotic). Cells were seeded at 100 μL/well at 750 cells per well in 96-well plates and allowed to settle and attach. After an incubation of 24 hrs (37° C., 5% CO2, humidified incubator), 100 μL of test compound-containing media was added. A dilution series of 2000× concentrated stock of test compounds was prepared in DMSO, for final concentrations from 0.1 to 10,000 nM. After addition of test compound-containing media, cells were incubated for 6 days at 37° C., 5% CO2, humidified incubators). To measure cell density, 20 μL of Promega Substrate Cell Titer 96 Aqueous One Solution Reagent (Promega, #G3582) to each well was added according to the manufacturer's instructions. Plates were incubated at 37° C. for usually 3-8 hrs, to reach in the control cells (without compound) an OD of 1.5 at 490 nm. The OD was measured using Vmax [Molecular Devices] spectrophotometer plate reader. Media only-wells were used as background controls and cell densities normalized to DMSO vehicle control. ECs were taken as the concentration achieving 50% of maximal growth inhibition.

NCI-H23 cells = assay: as above; format: cell-based; settings: 144 hrs
Method: as §1

NCI-H226 cells [2] = assay: Proliferation, Cell Titer One assay; format: cell-based; settings: 6 days
Method: as §1

NCI-H28 cells = assay: Proliferation, Cell Titer One assay; format: cell-based; settings: 6 days
Method: as §1

[3] = test system: TEAD/YAP promoter element in MCF7-Luc cells; assay: Cell-based TEAD-promoter transcriptional activity assay (MCF-7 TEAD luciferase); settings: Homo sapiens, MCF7; MCF-7 TEAD luciferase assay, 24 hrs
Description: Luciferase based TEAD-transcriptional cell-based reporter assay: To measure the effect of the TEAD inhibitors disclosed herein on TEAD transcriptional activity in cell-based systems, we employed a stable MCF7 cell line expressing luciferase under a consensus synthetic TEAD/YAP promoter element (MCF7-Luc, BPS Bioscience, Catalog #60618). This MCF7-TEAD-Luc cell line has been extensively validated with both genetic and pharmacological intervention, showing inhibition of luciferase expression and luminescence in response to ablation of the TEAD/YAP pathway. MCF7-Luc cells were plated at 10,000 cells per well in white 384-well plates and settled by a quick spin. The media was MEM (Gibco) supplemented with 10% fetal bovine serum (ExCell), selenium-transferrin-insulin mix (Gibco), 1× non-essential amino acids (Gibco) and sodium pyruvate (Gibco). Cells were allowed to attach and grow overnight (37° C., 5% CO2 in humidified incubator), and test compounds were added the next day. Compounds were dissolved at 1000× fold excess in DMSO and made into 2-fold serial dilution, and added to media at 30 μL of media per well. A DMSO-only well serves a vehicle control. The highest concentration of drug in media was 1,000 nM. Positive control compounds include K975 (pan-TEAD inhibitor) and negative control (Actinomycin). Cells were incubated for 24 hrs with test compounds and positive controls, after which time, the luminescence was measured by the One-Glo luciferase kit (Promega). 30 μL of One-Glo reagent was added to each well and shaken for 8 minutes to lyse the cells. The plates were centrifugated at 1000 RPM for 1 minute to settle all liquid in the well and eliminate bubbles. Luminescence was quantified using an ENVision plate reader (Perkin Elmer). Percent inhibition of luminescence by test compound was expressed as a function of test compound concentration, with the no-test compound DMSO only wells serving as baseline. EC50 values for each compound were calculated with a non-linear asymptotic line fit.

TEAD1 = TEAD1 (Homo sapiens, UniProt P28347); settings: cited from earlier work
TEAD2 = TEAD2 (Homo sapiens, UniProt Q15562); settings: thermal shift, reported data of Tang and Post; cited from earlier work
TEAD3 = TEAD3 (Homo sapiens, UniProt Q99594); settings: thermal shift, reported data of Tang and Post; cited from earlier work
TEAD4 = TEAD4 (Homo sapiens, UniProt Q15561); settings: cited from earlier work
[4] = Homo sapiens, NCI-H23, H23-non-responder cell line
[5] = thermal shift assays of Tang and Post
[6] = thermal shift, reported data of Tang and Post

TEAD1, sequence (P28347 whole entry): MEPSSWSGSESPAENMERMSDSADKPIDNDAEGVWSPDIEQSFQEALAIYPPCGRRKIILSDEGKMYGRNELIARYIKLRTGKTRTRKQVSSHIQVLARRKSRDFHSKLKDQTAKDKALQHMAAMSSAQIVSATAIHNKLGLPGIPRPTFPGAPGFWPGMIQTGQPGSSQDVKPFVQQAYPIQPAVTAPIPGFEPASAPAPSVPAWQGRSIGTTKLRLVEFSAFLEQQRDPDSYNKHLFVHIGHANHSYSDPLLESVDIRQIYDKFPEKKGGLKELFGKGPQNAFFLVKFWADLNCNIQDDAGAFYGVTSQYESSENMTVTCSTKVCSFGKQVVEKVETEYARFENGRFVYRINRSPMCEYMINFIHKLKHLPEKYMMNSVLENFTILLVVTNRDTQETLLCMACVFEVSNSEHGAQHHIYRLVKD
TEAD4, sequence (Q15561 whole entry): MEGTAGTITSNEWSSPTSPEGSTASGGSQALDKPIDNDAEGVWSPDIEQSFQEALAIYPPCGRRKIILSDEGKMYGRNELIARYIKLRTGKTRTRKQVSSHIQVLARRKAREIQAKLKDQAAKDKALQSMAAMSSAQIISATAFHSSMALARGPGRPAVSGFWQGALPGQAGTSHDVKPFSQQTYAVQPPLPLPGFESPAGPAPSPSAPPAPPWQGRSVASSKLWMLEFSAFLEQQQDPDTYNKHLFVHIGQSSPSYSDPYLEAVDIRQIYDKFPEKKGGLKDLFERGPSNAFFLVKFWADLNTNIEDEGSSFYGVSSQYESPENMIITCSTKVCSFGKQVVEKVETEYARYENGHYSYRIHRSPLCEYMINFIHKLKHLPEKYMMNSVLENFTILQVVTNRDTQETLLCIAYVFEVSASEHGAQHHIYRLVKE
TEAD2, sequence (Q15562 whole entry): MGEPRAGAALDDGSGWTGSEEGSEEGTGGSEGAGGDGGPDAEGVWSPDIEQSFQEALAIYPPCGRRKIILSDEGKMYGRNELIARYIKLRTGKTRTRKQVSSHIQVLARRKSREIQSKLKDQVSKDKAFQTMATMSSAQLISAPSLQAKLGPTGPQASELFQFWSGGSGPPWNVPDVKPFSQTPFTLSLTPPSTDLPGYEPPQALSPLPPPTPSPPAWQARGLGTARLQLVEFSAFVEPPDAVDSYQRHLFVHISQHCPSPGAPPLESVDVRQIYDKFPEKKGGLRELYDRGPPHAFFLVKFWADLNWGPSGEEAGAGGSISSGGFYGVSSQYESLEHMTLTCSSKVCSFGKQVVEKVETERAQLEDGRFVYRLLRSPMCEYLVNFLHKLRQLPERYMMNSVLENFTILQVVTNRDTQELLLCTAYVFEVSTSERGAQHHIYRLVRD
TEAD3, sequence (Q99594 whole entry): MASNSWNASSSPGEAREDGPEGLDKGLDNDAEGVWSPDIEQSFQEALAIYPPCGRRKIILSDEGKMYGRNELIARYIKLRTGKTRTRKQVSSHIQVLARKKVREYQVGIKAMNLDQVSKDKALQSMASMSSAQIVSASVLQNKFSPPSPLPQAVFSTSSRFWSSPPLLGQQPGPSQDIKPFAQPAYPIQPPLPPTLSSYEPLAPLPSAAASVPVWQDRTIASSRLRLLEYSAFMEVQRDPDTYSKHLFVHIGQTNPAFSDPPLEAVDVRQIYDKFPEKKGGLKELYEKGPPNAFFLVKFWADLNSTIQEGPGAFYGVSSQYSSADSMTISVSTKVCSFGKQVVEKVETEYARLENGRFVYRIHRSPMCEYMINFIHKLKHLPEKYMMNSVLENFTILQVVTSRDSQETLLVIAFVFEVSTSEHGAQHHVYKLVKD

With `C[C@H](NC(=O)c1cnc2c(C3=CC[C@@H](C(F)(F)F)CC3)cccc2c1)c1ncco1` (single isomer, unassigned) [Compound 21, N-(1-(oxazol-2-yl)ethyl)-8-(4-(trifluoromethyl)cyclohex-1-en-1-yl)quinoline-3-carboxamide] the IC50 (NCI-H226 cells [1]) was 200 to 1000 nM, the IC50 (NCI-H23 cells; H23-non-responder cell line) was > 1000 nM and the IC50 (NCI-H226 cells [2]) was 200 to 1000 nM. The IC50 (NCI-H28 cells) was > 1000 nM.

In the case of `C[C@H](NC(=O)c1cnc2c(C3=CC[C@@H](C(F)(F)F)CC3)cccc2c1)c1ncco1` (single isomer, unassigned) [Compound 22, N-(1-(oxazol-2-yl)ethyl)-8-(4-(trifluoromethyl)cyclohex-1-en-1-yl)quinoline-3-carboxamide], the IC50 (NCI-H226 cells [1]) is reported as < 200 nM, the IC50 (NCI-H23 cells; H23-non-responder cell line) is reported as > 1000 nM and the IC50 (NCI-H226 cells [2]) is reported as 200 to 1000 nM. For the same compound, the IC50 (NCI-H28 cells) was > 1000 nM.

In the case of `CC(C)NC(=O)c1cnc2c(C3=CCC(C(F)(F)F)CC3)cccc2c1` (centres unmarked) [Compound 1, N-isopropyl-8-(4-(trifluoromethyl)cyclohex-1-en-1-yl)quinoline-3-carboxamide], the IC50 (NCI-H226 cells [1]; Homo sapiens, NCI-H226, 144 h) is reported as < 200 nM, the IC50 (NCI-H23 cells; [4]) is reported as > 1000 nM and the IC50 (NCI-H226 cells [2]; Homo sapiens, NCI-H226, 144 h) is reported as < 200 nM. For the same compound, the IC50 (NCI-H28 cells; Homo sapiens, NCI-H28, 144 h) was > 1000 nM and the EC50 [3] was < 200 nM.

For `COC[C@H](C)NC(=O)c1cnc2c(C3=CCC(C(F)(F)F)CC3)cccc2c1` (stereo partly drawn) [Compound 6, N—((S)-1-methoxypropan-2-yl)-8-(4-(trifluoromethyl)cyclohex-1-en-1-yl)quinoline-3-carboxamide], the IC50 (NCI-H226 cells [1]; Homo sapiens, NCI-H226, 144 h) was < 200 nM, the IC50 (NCI-H23 cells; [4]) was > 1000 nM and the IC50 (NCI-H226 cells [2]; Homo sapiens, NCI-H226, 144 h) was < 200 nM. For the same compound, the IC50 (NCI-H28 cells; Homo sapiens, NCI-H28, 144 h) was > 1000 nM.

For `CS(=O)(=O)c1cnc2c(C3=CCC(C(F)(F)F)CC3)cccc2c1` (centres unmarked) [Compound 16, 3-(methylsulfonyl)-8-(4-(trifluoromethyl)cyclohex-1-en-1-yl)quinoline], the IC50 (NCI-H226 cells [1]; Homo sapiens, NCI-H226, 144 h) was < 200 nM, the IC50 (NCI-H226 cells [2]; Homo sapiens, NCI-H226, 144 h) was < 200 nM and the IC50 (NCI-H28 cells; Homo sapiens, NCI-H28, 144 h) was > 1000 nM.

In the case of `C[C@H](CO)NC(=O)c1ccc2c(Oc3ccc(C(F)(F)F)cc3)cccc2c1` [VT3989], the “interaction with TEAD isoforms, in words” value (TEAD1; [5]) is given as “primarily interacts with TEAD1-3”, the “TEAD1 ΔTm” value (TEAD1; [6]) is given as 11.6 °C and the “TEAD2 ΔTm” value (TEAD2) is given as 8.8 °C. The “TEAD3 ΔTm” value (TEAD3) was 8.5 °C, the “binding to TEAD4, in words” value (TEAD4; [5]) was “lower levels of binding to TEAD4” and the “TEAD4 ΔTm” value (TEAD4; [6]) was 4.6 °C.
